Converted amounts (≈) assume the structure as drawn.
Details: buffer; pH 7.4; 200.0 µM

| solubility kinetic | SMILES |
| --- | --- |
| 46.9 µg/mL (≈ 108 µM) | CCCCOc1ccc(C2C(C(=O)c3ccc(C)o3)=C(O)C(=O)N2Cc2ccco2)cc1 (stereo not given) |
| 10.3 µg/mL (≈ 22.3 µM) | Cc1ccc(S(=O)(=O)N2CCOCC2)cc1NC(=O)COC(=O)/C=C/c1ccc(F)cc1 |
| > 36.6 µg/mL | Cc1cc(NC(=O)C(C)SCC(=O)O)no1 (stereo not given) |
| 0.6 µg/mL (≈ 1.57 µM) | Cc1ccc(S(=O)(=O)NCCNc2ccc(Br)c(C)c2)cc1 |
| 13.7 µg/mL (≈ 43.7 µM) | O=C(CCCc1nc(-c2ccccc2)no1)NC1CCCCC1 |
| < 0.6 µg/mL | O=C(COc1ccc(Cl)cc1)Nc1ccccc1Cl |
| > 48.1 µg/mL | CC(=O)N1CCN(Cc2nc(-c3cccc(Cl)c3)no2)CC1 |
| 1.4 µg/mL (≈ 4.23 µM) | O=C(Nc1c(-c2ccccc2)nc2ccccn12)c1cccc(F)c1 |
| > 42.8 µg/mL | COc1ccc(C(=O)NC(=S)SCC(=O)O)cc1 |
| > 45.2 µg/mL | CN(C)c1ccc(C(=O)NC2(N3CCC3=O)CCCC2)cc1 |
| > 52.7 µg/mL | Cc1nc(SCC(=O)NCC2CCCO2)c2c(C)c(C)sc2n1 (stereo not given) |
| < 0.7 µg/mL | CCCC(=O)Oc1ccc(C2NC(=O)c3ccccc3O2)cc1 (stereo not given) |
| > 44.3 µg/mL | CC(C)c1cc(=O)[nH]c(SCC(=O)NC2CCCC2)n1 |
| > 38.4 µg/mL | COCCNC(=O)Cn1nc(C)c([N+](=O)[O-])c1C |
| 32.4 µg/mL (≈ 109 µM) | COc1ccc(C(=O)N2CCCc3ccccc32)cc1OC |
| 7.7 µg/mL (≈ 22.1 µM) | COCCN(C(=S)Nc1ccc(C)cc1C)C(C)c1cccs1 (stereo not given) |
| > 52.4 µg/mL | Cc1onc(-c2ccccc2)c1C(=O)N1CCN(c2ncccn2)CC1 |
| 41.8 µg/mL (≈ 110 µM) | Cc1nc(SCC(=O)N2CCN(c3ccccn3)CC2)c(C#N)c(C)c1C |
| 24.1 µg/mL (≈ 77.4 µM) | Cc1ccccc1C1CCCN(Cc2nc(CC3CC3)no2)C1 (stereo not given) |
| 1.6 µg/mL (≈ 4.77 µM) | Cn1c(SCc2ccc([N+](=O)[O-])cc2)nc2c(c1=O)SCC2 |
| 0.6 µg/mL (≈ 1.71 µM) | Cc1ccc(C(=O)Nc2cccc(NC(=O)c3cccs3)c2)c(C)c1 |
| 0.4 µg/mL (≈ 1.36 µM) | O=C(NCc1ccc(Cl)cc1Cl)Nc1ccccc1 |
| > 43.5 µg/mL | O=C(O)c1cccnc1SCc1ccc([N+](=O)[O-])cc1 |
| 16.2 µg/mL (≈ 75.6 µM) | O=C(Nc1ccccc1)Nc1cnccn1 |

| solubility kinetic | SMILES |
| --- | --- |
| > 47.5 µg/mL | Cc1nc(Cc2ccc(OC(C)C)cc2)[nH]c(=O)c1CC(=O)O |
| 15.4 µg/mL (≈ 58.5 µM) | CC(C)c1ccc(N=C2N=C(N)c3ccccc32)cc1 |
| > 48 µg/mL | CSc1nc(NS(=O)(=O)c2ccc(F)cc2F)nn1C |
| 27.7 µg/mL (≈ 106 µM) | CNS(=O)(=O)c1ccc2c3c(cccc13)C(=O)N2 |
| 26.7 µg/mL (≈ 81.7 µM) | Cc1nc2ccccc2c2c1CC(C(C)(Cl)Br)O2 (stereo not given) |
| 29.5 µg/mL (≈ 67.6 µM) | Cc1nc(SCC(=O)Nc2cccc(S(=O)(=O)N3CCOCC3)c2)nc(C)c1C |
| > 55.6 µg/mL | CN(C(=O)COC(=O)Cc1ccccc1[N+](=O)[O-])C1CCS(=O)(=O)C1 (stereo not given) |
| > 49.2 µg/mL | O=C(OCC(=O)N1CCOCC1)c1ccc(Br)cc1 |
| 48.1 µg/mL (≈ 148 µM) | COc1ccc(-c2ccc(CCC(=O)O)n2Cc2ccco2)cc1 |
| > 42.2 µg/mL | N#Cc1cn(-c2cccc(C(F)(F)F)c2)c(=O)[nH]c1=O |
| 11 µg/mL (≈ 33.2 µM) | COc1cc(Cl)c(C)cc1NC(=O)CSC1=NCCS1 |
| > 53.3 µg/mL | Cc1c(N2C(=O)CSC2c2ccco2)c(=O)n(-c2ccccc2)n1C (stereo not given) |
| 42.9 µg/mL (≈ 144 µM) | COc1ccc(NC(=O)c2ccc3nc[nH]c3c2)c(OC)c1 |
| > 42.5 µg/mL | Cc1nc(CCNS(=O)(=O)c2cccnc2)cs1 |
| < 0.7 µg/mL | O=C(COc1ccc2ccc(=O)oc2c1)N1CCc2ccccc21 |
| < 0.6 µg/mL | O=S(=O)(/C=C/c1ccccc1)N1CCc2ccccc2C1 |
| > 50.8 µg/mL | CN1CCN(c2nc(-c3ccccc3Cl)nc3ccccc23)CC1 |
| > 45.5 µg/mL | CCN1CCC(N2CCN(c3ccccc3OC)CC2)CC1 |
| 10.5 µg/mL (≈ 30.3 µM) | CCOc1ccccc1NC(=O)Cn1c(=O)oc2cc(Cl)ccc21 |
| 38.5 µg/mL (≈ 142 µM) | COC(=O)c1cc(OC)c(OC)c(OC)c1[N+](=O)[O-] |
| 8.9 µg/mL (≈ 27.4 µM) | Cc1cc(=O)oc2cc(NC(=S)NCc3cccnc3)ccc12 |
| > 56.9 µg/mL | COc1cc(OC)c(C(=O)OCC(=O)NC2CCCCCCC2)cc1OC |
| 2.3 µg/mL (≈ 7.22 µM) | O=S(=O)(Cc1ccccc1)N1CCN(c2ncccn2)CC1 |
| 1.9 µg/mL (≈ 6.89 µM) | Cc1cc(NC(=O)COc2ccccc2)ccc1Cl |

| solubility kinetic | SMILES |
| --- | --- |
| > 42.3 µg/mL | CNCc1ccccc1OCc1ccccc1F.Cl |
| 24.1 µg/mL (≈ 69 µM) | Cc1ccc(C(=O)N2CCC(C(=O)c3c(C)cc(C)cc3C)CC2)cc1 |
| 14.5 µg/mL (≈ 39 µM) | COc1ccc(NC(=O)CCCc2nc3ccccc3c(=O)[nH]2)cc1Cl |
| 12.5 µg/mL (≈ 39.4 µM) | CCN(c1cccc2ccccc12)S(=O)(=O)c1cccs1 |
| > 44.9 µg/mL | CC(=O)Cn1c(CN2CCCCC2)nc2ccccc2c1=O |
| > 43.5 µg/mL | Cl.Fc1ccc(OCCCCN2CCOCC2)cc1 |
| 51 µg/mL (≈ 148 µM) | CNS(=O)(=O)c1ccc(NS(=O)(=O)c2ccccc2F)cc1 |
| > 53.1 µg/mL | S=C(NCC1CCCO1)N1CCN(Cc2ccccc2Cl)CC1 (stereo not given) |
| > 55.9 µg/mL | CCn1c(C)nc2cc(C(=O)NN=Cc3ccccc3OC(F)F)ccc21 |
| 11.3 µg/mL (≈ 38.5 µM) | CCOC(=O)c1csc(COc2ccc(OC)cc2)n1 |
| > 51.7 µg/mL | CC(=O)NC(CC(=O)NCCOc1ccccc1F)c1ccccc1 (stereo not given) |
| < 0.3 µg/mL | COc1cc(OC)cc(-c2nc(-c3cccs3)no2)c1 |
| > 36.8 µg/mL | O=C(NCc1ccc2c(c1)OCO2)c1ccco1 |
| > 35.4 µg/mL | CC1(C)CC(CC(=O)O)CC(C)(C)N1.Cl |
| > 26.4 µg/mL | CCn1c(C)cc(C)c(C#N)c1=O |
| 0.9 µg/mL (≈ 2.79 µM) | COCCNc1nc(N)c([N+](=O)[O-])c(Nc2ccc(F)cc2)n1 |
| 2.1 µg/mL (≈ 7.21 µM) | O=C(Nc1ccccc1)Nc1ccccc1Br |
| > 46.8 µg/mL | CCOP(=O)(OCC)C1NC(=O)N(c2ccccc2)C1=O (stereo not given) |
| 52.2 µg/mL (≈ 141 µM) | O=C(CC1C(=O)NCCN1C(=O)Nc1ccccc1)Nc1ccc(F)cc1 (stereo not given) |
| 18 µg/mL (≈ 49.1 µM) | O=C(COC(=O)CNC(=O)c1ccc(Cl)cc1)NC1CCCCCC1 |
| < 0.6 µg/mL | O=C1Cc2ccccc2C(c2c(Cl)cccc2Cl)N1 (stereo not given) |
| 44.1 µg/mL (≈ 135 µM) | Cc1ccc(S(=O)(=O)NC(=O)Nc2ccc(F)c(F)c2)cc1 |
| 32.8 µg/mL | CN(C)CCN(C(=O)c1ccc2ccccc2c1)c1nc2c(F)cc(F)cc2s1.Cl |
| 34.7 µg/mL (≈ 131 µM) | Cc1[nH]c2ccc(C(=O)Nc3ccncc3)cc2c1C |

| solubility kinetic | SMILES |
| --- | --- |
| 13.1 µg/mL (≈ 53 µM) | Cc1ccc(CSc2nc(N)cc(=O)[nH]2)cc1 |
| < 0.2 µg/mL | Cc1ccc(C)c(N2CCN(c3ccc([N+](=O)[O-])cn3)CC2)c1 |
| > 40.6 µg/mL | CN(C)CC(O)CN(c1ccccc1)c1ccccc1 (stereo not given) |
| > 36.5 µg/mL | CC(=O)c1cccc(NC(=O)c2ccc(C)o2)c1 |
| 29.6 µg/mL (≈ 106 µM) | CC(C)CCN1CCN(Cc2ccoc2)CC1CCO (stereo not given) |
| 4.6 µg/mL (≈ 14.1 µM) | O=C(Nc1ccc2ccccc2n1)c1ccccc1Br |
| 45.8 µg/mL (≈ 139 µM) | Cc1ccc(N2CC(C(=O)Nc3cccnc3)CC2=O)cc1Cl (stereo not given) |
| 2.1 µg/mL (≈ 8.01 µM) | CCCOc1ccccc1/C=C1\SC(N)=NC1=O |
| > 42.8 µg/mL | CCCn1c2ccccc2c2cnn(CC(=O)O)c(=O)c21 |
| 1.5 µg/mL (≈ 5.97 µM) | CCOC(=O)c1c(C=O)c2sc(C)cc2n1C |
| 8.8 µg/mL | CCNC(=O)NC1c2ccccc2CSc2ccccc21.O (stereo not given) |
| 45.7 µg/mL (≈ 147 µM) | CN(Cc1ccccn1)Cc1nc(COc2ccccc2)no1 |
| 1.9 µg/mL (≈ 7.15 µM) | C=CCNc1nc(Cl)nc(NCc2ccco2)n1 |
| > 52 µg/mL | CC(C)CN(C(=O)CSc1nncn1C)C1CCS(=O)(=O)C1 (stereo not given) |
| 36.7 µg/mL (≈ 71.8 µM) | CN(Cc1ccccc1)C(=O)COC(=O)c1ccc(Br)c(S(=O)(=O)N2CCOCC2)c1 |
| < 0.6 µg/mL | CCOc1ccc2oc(-c3ccccc3)c(C(N)=O)c2c1 |
| 44.7 µg/mL (≈ 141 µM) | c1cc(OCCCN2CCCCC2)ccc1CN1CCCCC1 |
| 0.7 µg/mL (≈ 2.07 µM) | O=C(Nc1ccc(Cl)cn1)c1cccc(OCc2ccccc2)c1 |
| < 0.3 µg/mL | CC(=O)c1sc(NC(=O)c2ccc(C)c(C)c2)nc1C |
| > 46.6 µg/mL | CC(C)(C)C(=O)Nc1ccc(S(=O)(=O)N2CCCC2)cc1 |
| 5.5 µg/mL (≈ 22.6 µM) | CCOC(=O)c1ccc2[nH]c3c(c2c1)CCCC3 |
| > 46.9 µg/mL | Cc1ccccc1C(=O)NC(=S)NC1CCS(=O)(=O)C1 (stereo not given) |
| 36.7 µg/mL (≈ 149 µM) | Nc1cc(C(F)(F)F)ccc1N1CCOCC1 |
| 0.7 µg/mL (≈ 2.32 µM) | COc1ccc(Nc2nccc(-c3ccc(C#N)cc3)n2)cc1 |

| solubility kinetic | SMILES |
| --- | --- |
| > 58.5 µg/mL | O=C(CCNC(=O)c1ccccc1)NNC(=O)c1ccccc1Br |
| > 27.3 µg/mL | Cc1cc2[nH]c3ccccc3c2cn1 |
| < 0.2 µg/mL | CC(C)(C)c1ccc(NC(=O)Nc2ccc3ccccc3n2)cc1 |
| > 39.8 µg/mL | Cc1nc([N+](=O)[O-])cn1CC(O)c1ccc(F)cc1 (stereo not given) |
| 5.3 µg/mL (≈ 13.8 µM) | Cc1ccc(C(=O)Nc2ccc(F)c(S(=O)(=O)N3CCOCC3)c2)s1 |
| 3.1 µg/mL (≈ 9.27 µM) | COc1ccccc1-c1cc(C(=O)N2CCCc3ccccc32)no1 |
| 27.9 µg/mL (≈ 84.4 µM) | CSc1ncccc1C(=O)OCC(=O)NCCc1ccccc1 |
| 36.5 µg/mL (≈ 108 µM) | COc1ccc(NC(=S)Nc2ccc(C)c(Cl)c2)cc1OC |
| 32.1 µg/mL (≈ 98.1 µM) | Cc1ccc2nc(NC(=O)COC(=O)c3ccccn3)sc2c1 |
| 0.5 µg/mL (≈ 1.88 µM) | Cc1ccccc1NC(=O)Nc1ccc2c(c1)CCC2 |
| 16.4 µg/mL (≈ 42.8 µM) | CCOc1ccc(NC(=O)CCN2C(=O)c3cccc([N+](=O)[O-])c3C2=O)cc1 |
| > 43.7 µg/mL | Cc1cc(C)c(NC(=O)COC(=O)C2CCCO2)c(C)c1 (stereo not given) |
| 2.9 µg/mL (≈ 8.26 µM) | O=C(COC(=O)/C=C/c1ccccc1Cl)Nc1cccnc1Cl |
| > 50.1 µg/mL | COC(=O)c1ccccc1Oc1ccc(NC(=O)CCCl)cc1 |
| > 67.8 µg/mL | Cc1ccc(Br)c(NS(=O)(=O)c2cccc(C(=O)N3CCNC(=O)C3)c2)c1 |
| > 37.7 µg/mL | CCOC(=O)CSc1nc2cccnc2n1C |
| 31.7 µg/mL (≈ 108 µM) | O=C(COc1ccc(/C=C\[N+](=O)[O-])cc1)N1CCOCC1 |
| 1.9 µg/mL (≈ 5.72 µM) | O=C(Nc1csc([N+](=O)[O-])c1)Nc1c(Cl)cccc1Cl |
| 43.4 µg/mL | Cl.c1ccc(SCCOCCN2CCOCC2)cc1 |
| 2 µg/mL (≈ 7.56 µM) | O=C(Nc1cccc(F)c1)Nc1cccc(Cl)c1 |
| 7.9 µg/mL (≈ 14.5 µM) | CCOc1ccc(S(=O)(=O)/N=C(/Nc2ccc(C)c(S(=O)(=O)N3CCOCC3)c2)c2ccccc2)cc1 |

| SMILES | solubility kinetic |
| --- | --- |
| COc1ccccc1N1CCN(Cc2cnc(-c3ccccc3)[nH]2)CC1 | 15.1 µg/mL (≈ 43.3 µM) |
| CCCCn1c(=O)c(C(=O)NCc2ccco2)c(O)c2ccccc21 | < 0.4 µg/mL |
| COC(=O)C1(C(=O)O)Cc2cc([N+](=O)[O-])ccc2N2CCCC21 (stereo not given) | 47.9 µg/mL (≈ 150 µM) |

Source: PubChem BioAssay AID1996
